Earlier results, collected in PubChem BioAssay AID1259410 (Chemical Carcinogenesis Research Information System (CCRIS), 2018).

System: rodent tumor promotion studies, tumor incidence
Experiment: CCRIS tumor promotion studies
[1] = Carcinogen: 7,12-DIMETHYLBENZ(A)ANTHRACENE, Doses [Carcinogen]: TOP, Route [Carcinogen]: DERMAL, Route [Promoter]: DERMAL, Species: MOUSE, Strain/Sex: FEMALE

Structure (SMILES): C=C(C)[C@@]12OC3(c4ccccc4)O[C@@H]1[C@@H]1[C@@H]4OC4(CO)[C@@H](O)[C@]4(O)C(=O)C(C)=C[C@H]4[C@@]1(O3)[C@H](C)[C@H]2OC(=O)/C=C/C=C/c1ccccc1 (some centres undefined)
- outcome (Carcinogen: 7,12-DIMETHYLBENZ[A]ANTHRACENE, 57-97-6, Doses [Carcinogen]: 10 NMOL APPLIED TO BACK ONCE, Doses [Promoter]: 9 NMOL 2/WK FOR 19 WK BEGINNING 1 WK POST CARCINOGEN DOSE (STUDY DURATION: 40 WK), Route [Carcinogen]: DERMAL, Route [Promoter]: DERMAL, Species: MOUSE, Strain/Sex: HRA/SKH/FEMALE): skin: papilloma

Structure (SMILES): Oc1ccc2c(c1)CCCC2
- outcome [1]: integumentary system (skin)

Structure (SMILES): CNc1ccccc1C(=O)O[C@@H]1[C@@H](C)[C@@]2(O)[C@@H](C=C(CO)C[C@]3(O)C(=O)C(C)=C[C@@H]23)[C@@H]2C(C)(C)[C@]12OC(C)=O
- outcome (Carcinogen: 7,12-DIMETHYLBENZ[A]ANTHRACENE, 57-97-6, Doses [Carcinogen]: 10 NMOL ONCE, Doses [Promoter]: 0, 3.3 NMOL 2/WK FOR 20 WK (STUDY DURATION: 20 WK), Route [Carcinogen]: DERMAL, Route [Promoter]: DERMAL, Species: MOUSE, Strain/Sex: SENCAR): skin: papilloma

Structure (SMILES): Cc1c(C)c2c(c(C)c1O)CCC(C)(CCCC(C)CCCC(C)CCCC(C)C)O2 (centres undefined)
- outcome (Carcinogen: 7,12-DIMETHYLBENZ[A]ANTHRACENE, 57-97-6, Doses [Carcinogen]: 10 NMOL IN 0.2 ML ACETONE ONCE, Doses [Promoter]: 0, 80 UMOL IN 0.2 ML ACETONE 2/WK BEGINNING 1 WK POST CARCINOGEN DOSE AND CONTINUING FOR 19 WK (STUDY DURATION: 20 WK), Route [Carcinogen]: DERMAL, Route [Promoter]: DERMAL, Species: MOUSE, Strain/Sex: SENCAR/FEMALE): skin: papilloma

Structure (SMILES): CC/C(=C(\c1ccccc1)c1ccc(OCCN(C)C)cc1)c1ccccc1
- outcome (Carcinogen: P-DIMETHYLAMINOAZOBENZENE [60-11-7], Doses [Carcinogen]: 0.5% IN DIET FOR 28 WK (STUDY DURATION: 20 WK), Doses [Promoter]: 0, 0.025% IN DIET FOR 25 WK BEGINNING 3 WK POST FIRST CARCINOGEN DOSE (STUDY DURATION: 28 WK), Route [Carcinogen]: ORAL, Route [Promoter]: ORAL, Species: MOUSE, Strain/Sex: CF-1/MALE): liver: hepatocellular carcinoma

Structure (SMILES): Oc1ccc(Cl)cc1
- outcome [1]: integumentary system (skin)

Structure (SMILES): Clc1c(Cl)c(Cl)c(Cl)c(Cl)c1Cl
- outcome (Carcinogen: DIETHYLNITROSAMINE, 55-18-5, Doses [Carcinogen]: 0.015% IN DRINKING WATER FOR 3 WK, Doses [Promoter]: 0, 0.02% IN DIET (10.5 MG/KG/D) FOR 30 WK BEGINNING 2 WK AFTER LAST CARCINOGEN DOSE (STUDY DURATION: 35 WK), Route [Carcinogen]: ORAL, Route [Promoter]: ORAL, Species: RAT, Strain/Sex: F344/MALE): liver: hepatocellular carcinoma
- outcome (Carcinogen: DIETHYLNITROSAMINE, 55-18-5, Doses [Carcinogen]: 0.015% IN DRINKING WATER FOR 3 WK, Doses [Promoter]: 0, 0.02% IN DIET (12 MG/KG/D) FOR 30 WK BEGINNING 2 WK AFTER LAST CARCINOGEN DOSE (STUDY DURATION: 35 WK), Route [Carcinogen]: ORAL, Route [Promoter]: ORAL, Species: RAT, Strain/Sex: F344/FEMALE): liver: hepatocellular carcinoma

Structure (SMILES): CC(=O)Nc1ccc2c(c1)C(O)c1ccccc1-2 (centres undefined)
- outcome (Carcinogen: DIETHYLNITROSAMINE, 55-18-5, Doses [Carcinogen]: 200 MG/KG BW IN 0.9% SALINE ONCE, Doses [Promoter]: 0, 0.1 MMOL/KG BW IN POLYETHYLENE GLYCOL FOR 5 D BEGINNING 1 WK POST CARCINOGEN DOSE, 70% HEPATECTOMY PERFORMED 3 D AFTE, Route [Carcinogen]: INTRAPERITONEAL, Route [Promoter]: GAVAGE, Species: RAT, Strain/Sex: SPRAGUE-DAWLEY/MALE): liver: hepatocellular carcinoma

Structure (SMILES): O=[N+]([O-])c1ccc(F)c([N+](=O)[O-])c1
- outcome (Carcinogen: 7,12-DIMETHYLBENZ[A]ANTHRACENE, 57-97-6, Doses [Carcinogen]: 2.5 UG IN 200 µL ACETONE ONCE, Doses [Promoter]: 0, 0.1, 0.2% IN ACETONE/OLIVE OIL (4:1) 2/WK FOR 52 WK BEGINNING 2 WK POST CARCINOGEN DOSE (STUDY DURATION: 54 WK), Doses [Promoter]: 0, 0.1, 0.2% IN ACETONE/OLIVE OIL (4:1) 2/WK FOR 52 WK BEGINNING 2 WK POST CARCINOGEN DOSE (STUDY DURATION: 54 WK), Route [Carcinogen]: DERMAL, Route [Promoter]: DERMAL, Species: MOUSE, Strain/Sex: SENCAR/FEMALE): skin: tumor
- outcome (Carcinogen: 7,12-DIMETHYLBENZ[A]ANTHRACENE, 57-97-6, Doses [Carcinogen]: 100 NMOL ONCE, Doses [Promoter]: 0, 0.1, 0.2% 2/WK FOR 27 WK BEGINNING 2 WK POST CARCINOGEN DOSE (STUDY DURATION: 59 WK), Doses [Promoter]: 0, 0.1, 0.2% 2/WK FOR 27 WK BEGINNING 2 WK POST CARCINOGEN DOSE (STUDY DURATION: 59 WK), Route [Carcinogen]: DERMAL, Route [Promoter]: DERMAL, Species: MOUSE, Strain/Sex: SENCAR/FEMALE): skin: tumor

Structure (SMILES): CCCCCCCCCCO
- outcome [1]: integumentary system (skin)

Structure (SMILES): CC[C@H](C)[C@H](NC(=O)[C@H](Cc1cnc[nH]1)NC(=O)[C@H](CCSC)NC(=O)[C@H](CS)NC(=O)[C@@H](NC(=O)CNC(=O)CNC(=O)[C@H](CC(N)=O)NC(=O)[C@H](CC(C)C)NC(=O)[C@H](CS)NC(=O)[C@H](Cc1ccc(O)cc1)NC(=O)CNC(=O)[C@H](CC(=O)O)NC(=O)[C@H](Cc1ccc(O)cc1)NC(=O)[C@H](CO)NC(=O)[C@H](CO)NC(=O)[C@@H]1CCCN1C(=O)[C@H](CS)NC(=O)CNC(=O)[C@@H]1CCCN1C(=O)[C@H](Cc1ccc(O)cc1)NC(=O)[C@H](CO)NC(=O)[C@@H](N)CC(N)=O)C(C)C)C(=O)N[C@@H](CCC(=O)O)C(=O)N[C@@H](CO)C(=O)N[C@@H](CC(C)C)C(=O)N[C@@H](CC(=O)O)C(=O)N[C@@H](CO)C(=O)N[C@@H](Cc1ccc(O)cc1)C(=O)N[C@H](C(=O)N[C@@H](CS)C(=O)N[C@@H](CC(N)=O)C(=O)N[C@@H](CS)C(=O)N[C@H](C(=O)N[C@H](C(=O)NCC(=O)N[C@@H](Cc1ccc(O)cc1)C(=O)N[C@@H](CO)C(=O)NCC(=O)N[C@@H](CC(=O)O)C(=O)N[C@@H](CCCNC(=N)N)C(=O)N[C@@H](CS)C(=O)N[C@@H](CCC(N)=O)C(=O)N[C@H](C(=O)N[C@@H](CCCNC(=N)N)C(=O)N[C@@H](CC(=O)O)C(=O)N[C@@H](CC(C)C)C(=O)N[C@@H](CCCNC(=N)N)C(=O)N[C@@H](Cc1c[nH]c2ccccc12)C(=O)N[C@@H](Cc1c[nH]c2ccccc12)C(=O)N[C@@H](CCC(=O)O)C(=O)N[C@@H](CC(C)C)C(=O)N[C@@H](CCCNC(=N)N)C(=O)O)[C@@H](C)O)[C@@H](C)CC)C(C)C)[C@@H](C)O
- outcome (Carcinogen: 7,12-DIMETHYLBENZ[A]ANTHRACENE, 57-97-6, Doses [Carcinogen]: 0.5% IN ACETONE/HEAVY MINERAL OIL APPLIED TO BOTH CHEEK POUCHES 3/WK FOR 6 WK, Doses [Promoter]: 0, 10 UG/KG BW 3/WK FOR 6 WK BEGINNING 1 WK POST A SIALOADENECTOMY OR SHAM OPERATION AND 2 WK POST CARCINOGEN TREATMENT, Route [Carcinogen]: MUCOUS MEMBRANE, Route [Promoter]: MUCOUS MEMBRANE, Species: HAMSTER, Strain/Sex: SYRIAN/MALE): cheek pouch: tumor; forestomach: tumor

Structure (SMILES): O=CC=O
- outcome (Carcinogen: N-METHYL-N'-NITRO-N-NITROSOGUANIDINE, 70-25-7, Doses [Carcinogen]: 100 MG/L IN DRINKING WATER FOR 8 WK, Doses [Promoter]: 0, 0.5% IN DRINKING WATER BEGINNING POST LAST CARCINOGEN DOSE AND CONTINUING FOR 32 WK (STUDY DURATION: 40 WK), Route [Carcinogen]: ORAL, Route [Promoter]: ORAL, Species: RAT, Strain/Sex: WISTAR/MALE): glandular stomach (pylorus): adenocarcinoma

Structure (SMILES): CC1=C(/C=C/C(C)=C/C=C/C(C)=C/C=C/C=C(C)/C=C/C=C(C)/C=C/C2=C(C)CCCC2(C)C)C(C)(C)CCC1
- outcome (Carcinogen: 4-(N-METHYL-N-NITROSAMINO)-1-(3-PYRIDYL)-1-BUTANONE (NNK) [64091-91-4], Doses [Carcinogen]: 3.5 MG ON D 7, Doses [Promoter]: 0, 120, 600, 3000 PPM FROM START TO END AT 26 WKS (STUDY DURATION: 26 WKS), Doses [Promoter]: 0, 120, 600, 3000 PPM FROM START TO END AT 26 WKS (STUDY DURATION: 26 WKS), Route [Carcinogen]: IP INJECTION, Route [Promoter]: DIET, Species: MOUSE, Strain/Sex: A/J/MALE): lung - negative
- outcome (Carcinogen: 4-(N-METHYL-N-NITROSAMINO)-1-(3-PYRIDYL)-1-BUTANONE (NNK) [64091-91-4], Doses [Carcinogen]: 3.5 MG ON D 15 (STUDY DURATION: 28 WKS), Doses [Promoter]: 600 PPM WKS 1 TO 3, WKS 6 TO 28 OR WKS 1 TO 28 (STUDY DURATION: 28 WKS), Route [Carcinogen]: IP INJECTION, Route [Promoter]: DIET, Species: MOUSE, Strain/Sex: A/J/MALE): lung - negative
- outcome (Carcinogen: 4-(N-METHYL-N-NITROSAMINO)-1-(3-PYRIDYL)-1-BUTANONE (NNK) [64091-91-4], Doses [Carcinogen]: 5 MG ON D 28, Doses [Promoter]: 600 PPM FROM START TO WK 5, WK 3 TO 8, WKS 8 TO 24 OR FOR 24 WKS (STUDY DURATION: 24 WKS), Route [Carcinogen]: IP INJECTION, Route [Promoter]: DIET, Species: MOUSE, Strain/Sex: A/J/MALE): lung - negative

Structure (SMILES): COc1ccc2c(c1)c(CC(=O)O)c(C)n2C(=O)c1ccc(Cl)cc1
- outcome (Carcinogen: N-(4-(5-NITRO-2-FURYL)-2-THIAZOLYL)FORMAMIDE, 24554-26-5, Doses [Carcinogen]: 0.2% IN DIET FOR 7 WK, Doses [Promoter]: 0, 1 MG/KG/D IN DRINKING WATER FOR DURATION OF STUDY (STUDY DURATION: 92 WK), Route [Carcinogen]: ORAL, Route [Promoter]: ORAL, Species: RAT, Strain/Sex: SPRAGUE-DAWLEY/FEMALE): urinary tract: tumor

Structure (SMILES): C[C@]12CC[C@@H]3c4ccc(OS(=O)(=O)O)cc4CC[C@H]3[C@@H]1CCC2=O
- outcome (Carcinogen: 7,12-Dimethylbenz[a]anthrene, 57-97-6, Doses [Carcinogen]: 5 mg in corn oil, intragastric, once, Doses [Promoter]: 100 ng/ml in drinking water, study duration 20 wk, Route [Carcinogen]: Oral, Route [Promoter]: Oral, Species: Rat, Strain/Sex: Sprague-Dawley/Female (16/group)): mammary gland: tumor
